From US11623940B2, “Methods of nucleic acid synthesis comprising polyphosphate containing species” (Nuclera Nucleics Ltd., priority 2017, dated 2023)
“Also recorded” adds a separate entry of the source.

Columns and labels:
terminal transferase [1] = experiment: Terminal transferase-mediated addition of capping polyphosphate species to initiator strand (denaturing polyacrylamide gel); assay type: biochemical; conditions: for conversion of initiator strand of length N by terminal transferase-mediated addition: FIG. 1 lanes 2 and 3
Description: (§1) FIG. 1: Incorporation of dideoxynucleoside triphosphates by a terminal transferase prevents subsequent DNA synthesis. Lane 1: initiator sequence; Lane 2: dideoxyadenosine triphosphate addition; Lane 3: dideoxythymidine triphosphate addition; Lanes 4-6: duplicates of lanes 1-3 exposed to dCTP tailing conditions; Lane 7: initiator sequence. While dCTP tailing leads to the formation of a range of higher molecular weight products (Lane 4), prior treatment with a terminal transferase and dideoxynucleoside triphosphate prevents the formation of such higher molecular weight species (Lanes 5 and 6).
FIG. 2: Incorporation of tripolyphosphate by a terminal transferase prevents subsequent DNA synthesis. Lane 1: initiator sequence; Lane 2: 1 mM sodium tripolyphosphate; Lane 3: 10 mM sodium tripolyphosphate; Lane 4: 50 mM sodium tripolyphosphate; Lanes 5-7: duplicates of lanes 2-4 exposed to dCTP tailing conditions. Reaction products were analysed by denaturing polyacrylamide gel and visualized by an internal FAM dye.
(§2) Data is presented herein which exemplifies the utility of dideoxynucleoside triphosphates as a capping agent by incorporating a dideoxynucleotide using a terminal transferase, and so preventing polymerization of deoxycytidine triphosphate (dCTP) in a subsequent step with terminal transferase (FIG. 1). […] When the initiator strand is exposed to terminal transferase in the presence of dCTP, many higher molecular weight products are formed (a smear on the gel) due to the uncontrolled incorporation of dCTP into the initiator strand (lane 4). […] Lane 7 is a duplicate of lane 1.
(§3) Data is presented herein which exemplifies the utility of tripolyphosphate as a capping agent by incorporating a phosphate moiety on the 3′-terminus of an oligonucleotide using a terminal transferase, and so preventing polymerization of dCTP in a subsequent step with terminal transferase (FIG. 2). […] The new species migrates faster on the polyacrylamide gel due to the additional charge presented by the new 3′-phosphate moiety. […] Following incubation with the terminal transferase and tripolyphosphate, the mixture was removed. The initiator strand was then incubated with a terminal transferase and canonical dCTP. If a free 3′-hydroxyl is present, terminal transferase will add many dCTP in an uncontrolled fashion to generate higher molecular weight oligonucleotides.

terminal transferase [2] = experiment: dCTP tailing with terminal transferase after capping pre-treatment of initiator strand (gel); assay type: biochemical; conditions: for incorporation of dCTP into pre-treated initiator strand when exposed to terminal transferase and dCTP: FIG. 1 lanes 5 and 6, pre-treated with dideoxynucleoside triphosphate
Description: as §1
FIG. 2: Incorporation of tripolyphosphate by a terminal transferase prevents subsequent DNA synthesis. […] Reaction products were analysed by denaturing polyacrylamide gel and visualized by an internal FAM dye.
as §2, §3

Row | Compound | conversion of initiator strand of length N by terminal transferase-mediated addition (terminal transferase [1]) | incorporation of dCTP into pre-treated initiator strand when exposed to terminal transferase and dCTP (terminal transferase [2]) | terminal transferase mediated 3′-phosphorylation of initiator strand (terminal transferase [1]; 1 mM tripolyphosphate, FIG. 2 lane 2) | terminal transferase mediated 3′-phosphorylation of initiator strand (terminal transferase [1]; 5 mM tripolyphosphate, FIG. 2 lane 3) | terminal transferase mediated 3′-phosphorylation of initiator sequence (terminal transferase [1]; 10 mM sodium tripolyphosphate, FIG. 2 lane 3 (figure legend)) | terminal transferase mediated 3′-phosphorylation of initiator strand (terminal transferase [1]; 50 mM tripolyphosphate, FIG. 2 lane 4) | dCTP polymerization by terminal transferase after capping pre-incubation (terminal transferase [2]; pre-incubation with 1 mM tripolyphosphate, FIG. 2 lane 5) | dCTP polymerization by terminal transferase after capping pre-incubation (terminal transferase [2]; pre-incubation with 5 mM tripolyphosphate, FIG. 2 lane 6) | dCTP polymerisation by terminal transferase after capping pre-incubation (terminal transferase [2]; pre-incubation with 10 mM sodium tripolyphosphate, FIG. 2 lane 6 (figure legend)) | dCTP polymerization by terminal transferase after capping pre-incubation (terminal transferase [2]; pre-incubation with 50 mM tripolyphosphate, FIG. 2 lane 7)
1 | Nc1ncnc2c1ncn2[C@H]1CC[C@@H](COP(=O)(O)OP(=O)(O)OP(=O)(O)O)O1 [ddATP, dideoxyadenosine triphosphate] | converted to an N+1 species | resistant to incorporation of dCTP |  |  |  |  |  |  |  | 
2 | dideoxythymidine triphosphate [ddTTP] | converted to an N+1 species | resistant to incorporation of dCTP |  |  |  |  |  |  |  | 
3 | sodium tripolyphosphate |  |  | partially converted to a new 3′-phosphorylated species; also recorded: converted to a 3′-phosphorylated initiator sequence | partially converted to a new 3′-phosphorylated species | converted to a 3′-phosphorylated initiator sequence | does not proceed | largely prevents this polymerization; also recorded: resistant to enzyme mediated DNA polymerisation | largely prevents this polymerization | resistant to enzyme mediated DNA polymerisation | complete polymerization to higher molecular weight species
